{
  "source": "paper PMC3746989",
  "about": "(ACS medicinal chemistry letters, 2013)",
  "key": {"[1]": {"test_system": "PrP^Sc in RML prion-infected mouse neuroblastoma (ScN2a-cl3) cells", "format": "cell-based", "conditions": "for antiprion activity: relative to the 4-bromophenyl amide 10"}, "ScN2a-cl3 cells": {"test_system": "ScN2a-cl3 cells", "experiment": "Cell viability / compound toxicity with fluorescent probe calcein-AM", "format": "cell-based, mouse"}, "[2]": {"experiment": "In vivo mouse single-dose PK, brain and plasma exposure", "conditions": "for brain exposure / drug levels in brain: mice, oral dosing"}, "[3]": {"conditions": "mouse, oral 10 mg/kg, brain, relative to 21"}},
  "data": [
    {"compound": "CCOc1cccc(C(=O)Nc2ccc(N3CCN(C)CC3)cc2)c1", "note": "[Compound 8]", "values": [
      {"measurement": "antiprion activity", "setting": "[1]", "value": "inactivity"}
    ]},
    {"compound": "CN1CCN(c2ccc(NC(=O)c3cccc(Br)c3)cc2)CC1", "note": "[Compound 9]", "values": [
      {"measurement": "antiprion activity", "setting": "[1]", "value": "inactivity"}
    ]},
    {"compound": "CC(=O)c1ccc(NC(=O)c2ccc(-c3ccccc3)cc2)cc1", "note": "[Compound 14]", "values": [
      {"measurement": "fold improvement in potency, 14 versus 6", "setting": "[1]", "value": 10, "unit": "fold"}
    ]},
    {"compound": "CN1CCN(c2ccc(NC(=O)c3ccc(-c4ccccc4)cc3)cc2)CC1", "note": "[Compound 15]", "values": [
      {"measurement": "Calcein AM LD50", "setting": "ScN2a-cl3 cells", "value": ">5000", "unit": "nM"},
      {"measurement": "fold increase in antiprion potency over compound 7", "setting": "[1]; relative to original lead 7", "value": 4, "unit": "fold"}
    ]},
    {"compound": "CC(C)N1CCN(c2ccc(NC(=O)c3ccc(-c4ccccc4)cc3)cc2)CC1", "note": "[Compound 17]", "values": [
      {"measurement": "Calcein AM LD50", "setting": "ScN2a-cl3 cells", "value": ">10,000 nM"},
      {"measurement": "metabolic stability in hepatic microsomal preparations", "value": "excellent metabolic stability"},
      {"measurement": "brain exposure / drug levels in brain", "setting": "[2]", "value": "excellent drug levels in the brains"}
    ]},
    {"compound": "CCN1CCN(c2ccc(NC(=O)c3ccc(-c4ccccn4)cc3)cc2)CC1", "note": "[Compound 20]", "values": [
      {"measurement": "Calcein AM LD50", "setting": "ScN2a-cl3 cells", "value": ">10,000 nM"},
      {"measurement": "brain exposure / drug levels in brain", "setting": "[2]", "value": "excellent drug levels in the brains"},
      {"measurement": "fold higher brain AUC than 21", "setting": "[2]; [3]", "value": "> 7", "unit": "fold"},
      {"measurement": "fold higher brain Cmax than 21", "setting": "[2]; [3]", "value": "> 4", "unit": "fold"}
    ]},
    {"compound": "CCN1CCN(c2ccc(NC(=O)c3ccc(-c4cccnc4)cc3)cc2)CC1", "note": "[Compound 21]", "values": [
      {"measurement": "Calcein AM LD50", "setting": "ScN2a-cl3 cells", "value": ">10,000 nM"}
    ]},
    {"compound": "CCN1CCN(c2ccc(NC(=O)c3ccc(-c4ccncc4)cc3)cc2)CC1", "note": "[Compound 22]", "values": [
      {"measurement": "Calcein AM LD50", "setting": "ScN2a-cl3 cells", "value": ">10,000 nM"}
    ]},
    {"compound": "CC(C)N1CCN(c2ccc(NC(=O)c3ccc(-c4ccccn4)cc3)cc2)CC1", "note": "[Compound 23]", "values": [
      {"measurement": "Calcein AM LD50", "setting": "ScN2a-cl3 cells", "value": ">10,000 nM"},
      {"measurement": "brain exposure / drug levels in brain", "setting": "[2]", "value": "much lower brain exposure than either 16 or 20"}
    ]},
    {"compound": "CC(C)N1CCN(c2ccc(NC(=O)c3ccc(-c4ccccn4)cc3)nc2)CC1", "note": "[Compound 24]", "values": [
      {"measurement": "Calcein AM LD50", "setting": "ScN2a-cl3 cells", "value": ">10,000 nM"},
      {"measurement": "metabolic stability in hepatic microsomal preparations", "value": "excellent metabolic stability"},
      {"measurement": "brain exposure / drug levels in brain", "setting": "[2]", "value": "excellent drug levels in the brains"}
    ]},
    {"compound": "CC(C)N1CCN(c2ccc(NC(=O)c3ccc(-c4ccccn4)cc3)cn2)CC1", "note": "[Compound 25]", "values": [
      {"measurement": "Calcein AM LD50", "setting": "ScN2a-cl3 cells", "value": ">10,000 nM"}
    ]},
    {"compound": "CC(C)N1CCN(c2ccc(NC(=O)c3ccc(-c4ccccn4)cc3)c(F)c2)CC1", "note": "[Compound 26]", "values": [
      {"measurement": "Calcein AM LD50", "setting": "ScN2a-cl3 cells", "value": ">10,000 nM"},
      {"measurement": "metabolic stability in hepatic microsomal preparations", "value": "excellent metabolic stability"},
      {"measurement": "brain exposure / drug levels in brain", "setting": "[2]", "value": "excellent drug levels in the brains"}
    ]},
    {"compound": "CC(C)N1CCN(c2ccc(NC(=O)c3ccc(-c4ccccn4)cc3)cc2F)CC1", "note": "[Compound 27]", "values": [
      {"measurement": "Calcein AM LD50", "setting": "ScN2a-cl3 cells", "value": ">10,000 nM"},
      {"measurement": "metabolic stability in hepatic microsomal preparations", "value": "excellent metabolic stability"},
      {"measurement": "brain exposure / drug levels in brain", "setting": "[2]", "value": "excellent drug levels in the brains"}
    ]}
  ]
}
